The subject of series [1] is CD-1 mice. In words: core body temperature (rectal measuring). The format is in vivo, mouse. The note with it: for core body temperature, in words: rectal measuring, mice, vs saline. The method, then:
Admittedly, hyperthermia is considered a critical side effect of TRPV1 antagonists, so we assessed the effect of the polypeptides on body temperature. Polypeptides were administered intravenously at doses 0.1 mg/kg and 0.5 mg/kg, and rectal temperature was monitored (Figure 5a,b).
(§1) All experiments were performed in accordance with the recommendations in the “Principles of Laboratory Animal Care” and after approval by the Animal Care and Use Committee of the Branch of the IBCh RAS (Pushchino, Russia). Adult male CD-1 mice (Animal Breeding Facility Branch of Shemyakin-Ovchinnikov Institute of Bioorganic Chemistry, Russian Academy of Sciences, Pushchino, Russia) weighing 20–25 g were used. Animals were allowed to acclimate in the laboratory for at least five days. Mice were housed at room temperature (23 ± 2 °C) on a 12 h light–dark cycle with food and water available ad libitum. Polypeptides or vehicle was administered intravenously 15 min before testing.
(§2) The significance of the data was determined by analysis of variance (ANOVA) followed by Tukey’s test. Data are presented as mean ± S.E.
The MLT1404 Rectal Temperature Probe and Chart Power Lab (ADInstruments Inc., Colorado Springs, CO, USA) was used to record body temperature. During recording, the animals were placed in a MLA5018 Rodent Restrainer (ADInstruments Inc., Colorado Springs, CO, USA). The adaptation period was 20 min. Core body temperature was recorded every minute for 20 min before and 100 min after test compound administration. AMG9810 was dissolved in DMSO and was injected intraperitoneally.

The conditions of series [2]: stated as background; cited from earlier work. An excerpt:
TRPV1 participates in thermoregulation, and almost all its known agonists and antagonists change core body temperature. […] The influence of antagonists on core body temperature is more complex. Antagonists that interact with the intracellular capsaicin-binding pocket of TRPV1 elicit a hyperthermic effect if they are able to inhibit pH-induced TRPV1 currents.

The subject of series [3] is TRPV1. Type of series: cell-based, rat. Here is the method:
Figure 2 Effects of APHC3 on recombinant TRPV1 expressed in HEK-293 cells. (a) Resting current recorded from a TRPV1-positive cell held at −30 mV. […] Straight lines above the recording indicate application of APHC3 (Long line) and capsaicin (Short lines). The cells were stimulated and rinsed by rapid switching of the bath solution between the control solution and solutions containing the indicated compound. (b) Capsaicin responses in control and in the presence of the 300 nM APHC3 peptide. In each case, the control response was calculated as an average of two acid responses recorded just prior to peptide application. Averaged responses recorded in the presence of APHC3 were normalized to averaged control responses. Those are presented as the mean ± s.d. (n = 4). […] (c, d) Cell responses to the acidification of the bath solution from pH 7.4 to pH 5.5 in control and in the presence of the APHC3 applied at different concentrations as indicated. The experimental traces in (c) and in (d, upper trace) illustrate representative responses of EGFP/TRPV1-positive cells. The bottom trace in (d) represents responses of an EGFP/TRPV1-negative cell assayed simultaneously. (e) Acid responses recorded in the presence of APHC3 (90, 160 and 240 nM) normalized to a control response. The data are presented as the mean ± s.d. (n = 5–10). […] In each case, the control response was calculated as an average of the two acid responses recorded just prior to peptide application. The average of the two acid responses recorded after peptide application was calculated and normalized to the control response. Experimental traces in (c, d) were obtained from three different cells. The changes in bath solution pH (continuous lines) and APHC3 applications (thick straight lines) are shown above the fluorescence traces. Cells were stimulated and rinsed by a rapid replacement of the control bath solution with modified bath solution at pH 5.5 with or without APHC3.
(§3) HEK-293 cells were cultured in Dulbecco’s modified Eagle’s medium (DMEM) (Life Technologies, Grand Island, NY, USA) containing 10% (vol/vol) fetal bovine serum (Thermo Fisher Scientific, Palm Beach, FL, USA), glutamine (1%) and the antibiotic gentamicin (100 μg/mL) (Life Technologies, Grand Island, NY, USA). The pIRES2-EGFP plasmid harboring rat TRPV1 cDNA was transiently transfected into HEK-293 cells by replacing the growth medium in each well with a transfection mixture, containing 1.6 μg of DNA and 4 μL of Lipofectamine (Life Technologies, Grand Island, NY, USA) in 1 mL of serum-free DMEM. After incubating for 6 h, the transfection mixture was replaced with normal culture medium. Cells were assayed within 48–96 h after transfection.
Ion currents were recorded using an Axopatch 200A amplifier, with a DigiData 1322A interface, and pClamp8 software (Molecular Devices, Downingtown, PA, USA). External solutions were delivered by a gravity-driven perfusion system at a rate of 0.1 mL/s. Generally, the whole-cell patch clamp approach was used with recording pipettes containing (mM): 140 CsCl, 1 MgATP, 10 BAPTA, 10 HEPES-CsOH (pH 7.2). The basic bath solution included the following (mM): 140 NaCl, 5 KCl, 1 MgCl2, 1 CaCl2, 10 HEPES-NaOH (pH 7.4).

The subject of series [4] is TRPV1. In words: Ca^2+ imaging, capsaicin responses of TRPV1-positive HEK-293 cells. The format is cell-based, rat. The note with it: 100 nM. Here is the method: as §3
All recordings were performed at room temperature.

Series [5] deals with CD-1 mice. Description: hot plate test. Type of series: in vivo, mouse. Conditions: 0.1 and 1 mg/kg; 55 °C. The method, then:
The hot plate test is a most simple for TRPV1 inhibitor characterization since TRPV1 play significant role in temperature sensation. Effect of APHC1 and APHC3 on thermal nociception at dose 0.1 mg/kg after intramuscular, intraperitoneal and intravenous administration was measured before. […] Here we assessed changes in thermal nociception to a noxious thermal stimuli elicited by different doses of APHC1 and APHC3 to determine minimal effective dose. […] Both polypeptides reached maximal effect at 0.1 mg/kg.
as §1, §2
Sensitivity to a thermal stimulus was determined by hind paw withdrawal or licking latency using a Hot-Plate Analgesia Meter (Columbus Instruments, Columbus, OH, USA) at 55 °C.
Background: Hot-plate and tail-flick tests time the reaction to a heat stimulus.

The target of series [6] is Transient receptor potential vanilloid 1 receptor (TRPV1) (rat) (UniProt O35433).
Chain of UniProt O35433 (O35433 whole entry): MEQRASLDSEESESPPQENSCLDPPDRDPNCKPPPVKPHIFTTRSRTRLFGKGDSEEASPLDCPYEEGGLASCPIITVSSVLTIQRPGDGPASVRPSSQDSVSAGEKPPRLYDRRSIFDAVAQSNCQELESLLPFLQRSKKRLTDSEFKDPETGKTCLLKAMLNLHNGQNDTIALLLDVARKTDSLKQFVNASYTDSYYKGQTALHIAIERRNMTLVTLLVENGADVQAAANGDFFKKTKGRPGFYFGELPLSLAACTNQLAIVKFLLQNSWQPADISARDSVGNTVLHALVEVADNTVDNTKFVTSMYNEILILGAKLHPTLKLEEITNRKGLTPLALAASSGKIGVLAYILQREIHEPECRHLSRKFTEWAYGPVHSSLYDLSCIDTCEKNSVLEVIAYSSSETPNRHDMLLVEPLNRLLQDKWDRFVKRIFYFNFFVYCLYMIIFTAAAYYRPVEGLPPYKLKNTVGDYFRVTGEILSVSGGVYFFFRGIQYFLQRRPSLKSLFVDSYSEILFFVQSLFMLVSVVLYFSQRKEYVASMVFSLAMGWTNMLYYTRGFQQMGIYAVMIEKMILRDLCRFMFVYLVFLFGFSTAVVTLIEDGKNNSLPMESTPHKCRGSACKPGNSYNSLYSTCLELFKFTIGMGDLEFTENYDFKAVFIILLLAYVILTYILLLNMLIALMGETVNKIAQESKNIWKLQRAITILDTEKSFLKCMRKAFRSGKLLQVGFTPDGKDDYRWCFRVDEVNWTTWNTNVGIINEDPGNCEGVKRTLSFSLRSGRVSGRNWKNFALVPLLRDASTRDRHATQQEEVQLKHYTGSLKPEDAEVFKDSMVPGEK
Series [7] deals with TRPV1. The note with it: ref [22],[23]; cited from earlier work. An excerpt:
(§4) Several polypeptide modulators of TRPV1 that interact with the extracellular part of the receptor have been reported. […] The structural homology of APHCs to these proteins is minimal so both polypeptides presented structural distinct class of TRPV1 inhibitors.

In series [8] the test system is mice. Conditions: ref [22],[23]; cited from earlier work.
Source text: as §4

Turning to `CC(C)(C)c1ccc(/C=C/C(=O)Nc2ccc3c(c2)OCCO3)cc1` [AMG9810, reference compound], in series [1] (30 mg/kg i.p., vehicle 10% DMSO, significant, n = 7), the “increase in body temperature” value amounted to 1.6 °C. Further, in series [1], the “core body temperature, in words” value is “produced hyperthermic effect”.
As to `COc1cc(CNC(=O)CCCC/C=C/C(C)C)ccc1O` [capsaicin], the body temperature result in series [2] was “significant decrease in body temperature”. Further, the capsaicin-elicited currents entry in series [3] is “elicited strong inward currents in all examined TRPV1-positive cells”. In addition, the “capsaicin-elicited Ca^2+ responses” value in series [4] is “elicited marked Ca^2+ responses”.
As for aprotinin [reference compound], the “increase in core body temperature” value in series [1] (0.1 mg/kg, not statistically significant vs saline, n = 7) is 0.4–0.5 °C. The “core body temperature, in words” value in series [1] was “did not change or modestly increase core body temperature”. The “behavioral response to thermal stimuli” value in series [5] is on record as “did not change behavioral response to thermal stimuli”.

B1: APHC3 (peptide)
chain: GSICLEPKVVGPCTAYFPRFYFNSETGKCTPFIYGGCEGNGNNFETLRACRGICRA
In series [6], B1 yielded an inhibition of capsaicin (100 nM)-induced inward currents by 300 nM APHC3, whole-cell patch clamp on TRPV1-positive HEK-293 cells (n = 4) of 25%.

B2: DkTx: spider's polypeptide that activates TRPV1 (protein, UniProt P0CH43 1-79, looked up)
Tau-theraphotoxin-Hs1a: DCAKEGEVCSWGKKCCDLDNFYCPMEFIPHCKKYKPYVPVTTNCAKEGEVCGWGSKCCHGLDCPLAFIPYCEKYRGRND
For B2, the “effect on TRPV1 in vitro” value in series [7] is reported as “activate TRPV1 in vitro”. Further, the “pain response when injected in mice” value in series [8] was “mediate the pain response”.

Values taken from publication PMC3877906, “Polypeptide Modulators of TRPV1 Produce Analgesia without Hyperthermia” (Marine Drugs, 2013).
